Measurements: PubChem BioAssay AID1963983 (Molecular Pharmacology Branch, DTP, NCI, 2024)
Values joined by “and” are separate entries in the source; they are usually repeats but may differ in a detail not shown here. Identical values can stand only once.

Test system: 186277-243-T-J2-PDC multi-cell spheroid viability
Test: Anticancer human tumor 186277-243-T-J2-PDC patient-derived colon adenocarcinoma cell line growth inhibition [PI3K]
Settings: for viability, T/C: stronger effect = lower value
In short: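 Tumor cells grown as multi-cell spheroids with HUVEC endothelial cells and MSC fibroblast-like stroma were treated with targeted agents combined with inavolisib, alpelisib, duvelisib or copanlisib. Doses fell in half-log steps from near clinical Cmax, else from 10 microM. Viability was measured.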

[1] = curve of first compound, second compound 0.00316 µM
[2] = curve of first compound, second compound 0.01 µM
[3] = curve of first compound, second compound 0.0316 µM
[4] = curve of first compound, second compound 0.1 µM
[5] = curve of first compound, second compound 0.316 µM
[6] = curve of first compound, second compound 1 µM
[7] = second compound 0.00316 µM, first compound 0.0316 µM
[8] = second compound 0.00316 µM, first compound 0.1 µM
[9] = second compound 0.01 µM, first compound 0.0316 µM
[10] = second compound 0.01 µM, first compound 0.1 µM
[11] = second compound 0.0316 µM, first compound 0.0316 µM
[12] = second compound 0.0316 µM, first compound 0.1 µM
[13] = second compound 0.1 µM, first compound 0.0316 µM
[14] = second compound 0.1 µM, first compound 0.1 µM
[15] = second compound 0.316 µM, first compound 0.0316 µM
[16] = second compound 0.316 µM, first compound 0.1 µM
[17] = second compound 1 µM, first compound 0.0316 µM
[18] = second compound 1 µM, first compound 0.1 µM
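Note: spheroids exposed to compounds for seven days before viability reading.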
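Throughout, for viability, T/C: 100% = DMSO vehicle control viability.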

Which IC50 [1] does the source give for `Cn1ncnc1[C@H]1c2n[nH]c(=O)c3cc(F)cc(c23)N[C@@H]1c1ccc(F)cc1` + COc1c(OCCCN2CCOCC2)ccc2c3n(c(=NC(=O)c4cnc(N)nc4)nc12)CCN3 here?
Its IC50 is greater than 100 nM.

What about the IC50 [2] of the same compound?
The IC50 was greater than 100 nM.

And the IC50 [3]?
The IC50 was 21.4 nM.

And the IC50 [4]?
Its IC50 is less than 0.316 nM.

What about the IC50 [5] of the same compound?
The IC50 was less than 0.316 nM.

What about the IC50 [6] of the same compound?
Its IC50 is less than 0.316 nM.

What about the viability, T/C (second compound 0.00316 µM, first compound 0.000316 µM) of the same compound?
The viability, T/C was 102%.

What about the viability, T/C (second compound 0.00316 µM, first compound 0.001 µM) of the same compound?
The viability, T/C was 100%.

And the viability, T/C (second compound 0.00316 µM, first compound 0.00316 µM)?
Its viability, T/C is 105%.

What about the viability, T/C (second compound 0.00316 µM, first compound 0.01 µM) of the same compound?
Its viability, T/C is 80.9%.

And the viability, T/C [7]?
The viability, T/C was 88%.

And the viability, T/C [8]?
The viability, T/C was 79.5%.

What about the viability, T/C (second compound 0.01 µM, first compound 0.000316 µM) of the same compound?
Its viability, T/C is 93.8%.

What about the viability, T/C (second compound 0.01 µM, first compound 0.001 µM) of the same compound?
Its viability, T/C is 96%.

And the viability, T/C (second compound 0.01 µM, first compound 0.00316 µM)?
The viability, T/C was 83.6%.

And the viability, T/C (second compound 0.01 µM, first compound 0.01 µM)?
Its viability, T/C is 98.3%.

And the viability, T/C [9]?
The viability, T/C was 85.5%.

What about the viability, T/C [10] of the same compound?
The viability, T/C was 68.7%.

And the viability, T/C (second compound 0.0316 µM, first compound 0.000316 µM)?
The viability, T/C was 66%.

And the viability, T/C (second compound 0.0316 µM, first compound 0.001 µM)?
The viability, T/C was 63.8%.

And the viability, T/C (second compound 0.0316 µM, first compound 0.00316 µM)?
Its viability, T/C is 58.9%.

And the viability, T/C (second compound 0.0316 µM, first compound 0.01 µM)?
Its viability, T/C is 54.6%.

What about the viability, T/C [11] of the same compound?
The viability, T/C was 47.2%.

And the viability, T/C [12]?
Its viability, T/C is 40.8%.

What about the viability, T/C (second compound 0.1 µM, first compound 0.000316 µM) of the same compound?
Its viability, T/C is 22.2%.

And the viability, T/C (second compound 0.1 µM, first compound 0.001 µM)?
The viability, T/C was 15.9%.

What about the viability, T/C (second compound 0.1 µM, first compound 0.00316 µM) of the same compound?
The viability, T/C was 16.7%.

What about the viability, T/C (second compound 0.1 µM, first compound 0.01 µM) of the same compound?
Its viability, T/C is 13%.

What about the viability, T/C [13] of the same compound?
The viability, T/C was 14.1%.

And the viability, T/C [14]?
The viability, T/C was 9.78%.

What about the viability, T/C (second compound 0.316 µM, first compound 0.000316 µM) of the same compound?
Its viability, T/C is 4.1%.

What about the viability, T/C (second compound 0.316 µM, first compound 0.001 µM) of the same compound?
Its viability, T/C is 7.07%.

What about the viability, T/C (second compound 0.316 µM, first compound 0.00316 µM) of the same compound?
Its viability, T/C is 5.01%.

And the viability, T/C (second compound 0.316 µM, first compound 0.01 µM)?
The viability, T/C was 6.2%.

And the viability, T/C [15]?
Its viability, T/C is 4.54%.

And the viability, T/C [16]?
Its viability, T/C is 4.17%.

And the viability, T/C (second compound 1 µM, first compound 0.000316 µM)?
The viability, T/C was 3.72%.

And the viability, T/C (second compound 1 µM, first compound 0.001 µM)?
The viability, T/C was 4.99%.

And the viability, T/C (second compound 1 µM, first compound 0.00316 µM)?
Its viability, T/C is 1.76%.

And the viability, T/C (second compound 1 µM, first compound 0.01 µM)?
Its viability, T/C is 1.73%.

What about the viability, T/C [17] of the same compound?
The viability, T/C was 3.49%.

And the viability, T/C [18]?
The viability, T/C was 2.04%.

Which results are given for `CNC(=O)c1ccc(N2C(=S)N(c3ccc(C#N)c(C(F)(F)F)c3)C(=O)C2(C)C)cc1F`?
viability, T/C (compound 0.0316 µM): 100% [middle of 4 runs]; viability, T/C (compound 0.1 µM): 93.1% [middle of 4 runs]; viability, T/C (compound 0.316 µM): 100% [middle of 4 runs]; viability, T/C (compound 1 µM): 93% [middle of 4 runs]; viability, T/C (compound 3.16 µM): 101% and 104% (2×) and 94.4%; viability, T/C (compound 10 µM): 104% [middle of 4 runs]; IC50 (curve of compound): > 10000 nM

How did the IC50 [1] turn out when `CC1(C)CCC(Nc2ncc(C(F)(F)F)c(-c3c[nH]c4c(P(C)(C)=O)c(C#N)ccc34)n2)CN1` (stereo unspecified) + CC(Nc1ccc2c(c1)OCCn1cc(N3C(=O)OCC3C(F)F)nc1-2)C(N)=O was run?
The IC50 was 3600 nM.

And the IC50 [2]?
The IC50 was 3860 nM.

And the IC50 [3]?
Its IC50 is 3520 nM.

What about the IC50 [4] of the same compound?
Its IC50 is 1650 nM.

And the IC50 [5]?
The IC50 was 56.9 nM.

And the IC50 [6]?
The IC50 was less than 31.6 nM.

What about the viability, T/C [7] of the same compound?
The viability, T/C was 71.6%.

What about the viability, T/C [8] of the same compound?
The viability, T/C was 45.1%.

And the viability, T/C (second compound 0.00316 µM, first compound 0.316 µM)?
The viability, T/C was 52.8%.

What about the viability, T/C (second compound 0.00316 µM, first compound 1 µM) of the same compound?
The viability, T/C was 56.5%.

And the viability, T/C (second compound 0.00316 µM, first compound 3.16 µM)?
Its viability, T/C is 56.6%.

And the viability, T/C (second compound 0.00316 µM, first compound 10 µM)?
Its viability, T/C is 1.03%.

And the viability, T/C [9]?
The viability, T/C was 69.1%.

And the viability, T/C [10]?
Its viability, T/C is 52.9%.

And the viability, T/C (second compound 0.01 µM, first compound 0.316 µM)?
The viability, T/C was 55%.

And the viability, T/C (second compound 0.01 µM, first compound 1 µM)?
Its viability, T/C is 58.9%.

And the viability, T/C (second compound 0.01 µM, first compound 3.16 µM)?
Its viability, T/C is 66.3%.

And the viability, T/C (second compound 0.01 µM, first compound 10 µM)?
The viability, T/C was 0.23%.

And the viability, T/C [11]?
The viability, T/C was 78%.

And the viability, T/C [12]?
Its viability, T/C is 54.3%.

What about the viability, T/C (second compound 0.0316 µM, first compound 0.316 µM) of the same compound?
The viability, T/C was 51.7%.

What about the viability, T/C (second compound 0.0316 µM, first compound 1 µM) of the same compound?
Its viability, T/C is 57.8%.

And the viability, T/C (second compound 0.0316 µM, first compound 3.16 µM)?
The viability, T/C was 55.3%.

And the viability, T/C (second compound 0.0316 µM, first compound 10 µM)?
Its viability, T/C is 0.17%.

And the viability, T/C [13]?
Its viability, T/C is 72.7%.

What about the viability, T/C [14] of the same compound?
Its viability, T/C is 54.3%.

What about the viability, T/C (second compound 0.1 µM, first compound 0.316 µM) of the same compound?
The viability, T/C was 60.4%.

And the viability, T/C (second compound 0.1 µM, first compound 1 µM)?
The viability, T/C was 55.6%.

What about the viability, T/C (second compound 0.1 µM, first compound 3.16 µM) of the same compound?
Its viability, T/C is 43.6%.

And the viability, T/C (second compound 0.1 µM, first compound 10 µM)?
Its viability, T/C is 0.46%.

What about the viability, T/C [15] of the same compound?
The viability, T/C was 54.2%.

What about the viability, T/C [16] of the same compound?
The viability, T/C was 49.7%.

What about the viability, T/C (second compound 0.316 µM, first compound 0.316 µM) of the same compound?
The viability, T/C was 33.4%.

And the viability, T/C (second compound 0.316 µM, first compound 1 µM)?
Its viability, T/C is 41%.

And the viability, T/C (second compound 0.316 µM, first compound 3.16 µM)?
Its viability, T/C is 22.6%.

What about the viability, T/C (second compound 0.316 µM, first compound 10 µM) of the same compound?
Its viability, T/C is 0.44%.

What about the viability, T/C [17] of the same compound?
Its viability, T/C is 34.5%.

What about the viability, T/C [18] of the same compound?
The viability, T/C was 29.1%.

And the viability, T/C (second compound 1 µM, first compound 0.316 µM)?
The viability, T/C was 22.6%.

And the viability, T/C (second compound 1 µM, first compound 1 µM)?
The viability, T/C was 26.4%.

What about the viability, T/C (second compound 1 µM, first compound 3.16 µM) of the same compound?
The viability, T/C was 12.2%.

What about the viability, T/C (second compound 1 µM, first compound 10 µM) of the same compound?
The viability, T/C was 1.38%.
